From patent EP0097439A2, “A crystalline prostaglandin salt” (THE UPJOHN COMPANY, priority 1982, dated 1984)
Where a name gives a salt, the structure may show the parent alone. Read-outs that look alike come from different tables or passages of the source.

Key:
[1] = Plasma levels of 9-deoxo-16,16-dimethyl-9-methylene-PGE2 by radioimmunoassay after insertion of a suppository; type: in vivo, Rhesus monkeys (Macaca mulatta); conditions: rhesus monkey, plasma, 30 mg, plasma, read-out: Drug Levels
Source text: A. Midtrimester pregnant female Rhesus monkeys (Macaca mulatta) are used. (The first day of menstrual bleeding is designated Day 1 of the menstrual cycle; the first day a female is placed with a male for breeding is designated Day 1 of pregnancy. Pregnancy is confirmed by abdominal palpation of the uterus.)
Blood samples are collected into heparinized syringes at specified times following insertion of a suppository in pregnant or non- pregnant monkeys. Plasma is extracted and assayed for 9-deoxo-16,16-dimethyl-9-methylene-PGE2 content by radioimmunoassay.
C. Six suppository lots are prepared (4), each containing 9- deoxo-16,16-dimethyl-9-methylene-PGE2 or its crystalline potassium salt (Examples 1 and 2). Two lots are made with Witepsol H15 alone as the suppository base, two with Witepsol HIS wax plus 2% colloidal silicon dioxide (CSD) and two with Witepsol H15 plus 2% CSD plus 10% triacetin. Suppositories are prepared using Witepsol H15 suppository wax. Free acid or potassium salt is dispersed in the hot wax using a homogenizer. Two percent colloidal silicon dioxide (CSD) is mixed in by further homogenization. In the third formulation, triacetin (10%) is added before the CSD and then homogenized for one minute. Suppositories are formed in 800 mg aluminum molds and are stored at 4°C until used.
D. The plasma levels of 9-deoxo-16,16-d1methy1-9-methy1ene-PGE2 in monkeys treated with 6 formulations containing either 9-deoxo-16,16-dimethyl-9-methylene-PGE2 free acid or potassium salt are shown in Tables 1-6. In general, higher blood levels are measured in pregnant Rhesus monkeys than in non-pregnant monkeys.

[2] = Water content / hygroscopicity of the crystalline solid; type: physicochemical
Method: All solvents used in this example are degassed with nitrogen using a gas dispersion tube for 15 min prior to use. To a stirred solution of 4.82 g of 9-deoxo-16,16-dimethyl-9-methylene-PGE2 in 50 ml of methanol is added a solution of 880 mg of potassium carbonate in 15 ml of water. The reaction mixture is then allowed to stand for 5 min at 25°C and then concentrated under reduced pressure at 35°C. Eight 250 ml portions of anhydrous tetrahydrofuran are added and evaporated to insure complete removal of water. The residue, a pale yellow foam, is dissolved in 15 ml of methanol and added dropwise under a nitrogen atmosphere with vigorous stirring to one liter of diethyl ether. The initial cloudy suspension yields a gum-like residue on the walls of the reaction vessel after about 1 hr. Continued vigorous stirring for 24 hr leads to gradual crystallization and resuspension as a uniform, easily filterable solid. This suspension is then filtered using a medium porosity sintered glass funnel. The solids are washed with 15 ml of fresh diethyl ether at 25°C. After drying for 2 hr in a vacuum desiccator at 25°C, a colorless free-flowing crystalline solid, 5.13 g, is obtained, pure crystalline 9-deoxo-16,16-dimethyl-9-methylene-PGE2 potassium salt. IR absorptions (cm^-1) are observed at 3134, 1652, 1572, 1467, 1392, 1337, 1364, 1344, 1102, 1024, 974, and 883. […]

[3] = Monkey #4, 30 mg Potassium Salt in H15 Suppositories
[4] = Monkey #5, 30 mg Potassium Salt in H15 Suppositories
[5] = Monkey #6 (pregnant animal with uterine recording), 30 mg Potassium Salt in H15 Suppositories
[6] = Monkey #10, 30 mg Potassium Salt in H15 Plus 2% CSD Suppositories
[7] = Monkey #11, 30 mg Potassium Salt in H15 Plus 2% CSD Suppositories
[8] = Monkey #12 (pregnant animal with uterine recording), 30 mg Potassium Salt in H15 Plus 2% CSD Suppositories
[9] = Monkey #16, 30 mg Potassium Salt in H15 Plus 2% CSD + 10% Triacetin Suppositories
[10] = Monkey #17, 30 mg Potassium Salt in H15 Plus 2% CSD + 10% Triacetin Suppositories
[11] = Monkey #18, 30 mg Potassium Salt in H15 Plus 2% CSD + 10% Triacetin Suppositories

Which concentration at 0.25 h [1, 3] does the source give for `C=C1C[C@@H](O)[C@H](/C=C/[C@@H](O)C(C)(C)CCCC)[C@H]1C/C=C\CCCC(=O)O` [Potassium Salt, 9-deoxo-16,16-dimethyl-9-methylene-PGE2 potassium salt] here?
Its concentration at 0.25 h is 128 ng/mL.

What about the concentration at 0.5 h ([1]; Monkey #4, 0.5 Hours, 30 mg Potassium Salt in H15 Suppositories) of the same compound?
Its concentration at 0.5 h is 3.72 ng/mL.

And the concentration at 1.5 h [1, 3]?
Its concentration at 1.5 h is 0.41 ng/mL.

And the concentration at 2 h [1, 3]?
Its concentration at 2 h is 0.86 ng/mL.

And the concentration at 3 h [1, 3]?
The concentration at 3 h was 7.52 ng/mL.

And the concentration at 4 h [1, 3]?
Its concentration at 4 h is 8.39 ng/mL.

And the concentration at 6 h [1, 3]?
Its concentration at 6 h is 17.9 ng/mL.

And the concentration at 24 h [1, 3]?
Its concentration at 24 h is 21.7 ng/mL.

What about the concentration at 0.25 h [1, 4] of the same compound?
The concentration at 0.25 h was 10.9 ng/mL.

What about the concentration at 1 h [1, 4] of the same compound?
Its concentration at 1 h is 1.42 ng/mL.

What about the concentration at 1.5 h [1, 4] of the same compound?
Its concentration at 1.5 h is 5.91 ng/mL.

What about the concentration at 2 h [1, 4] of the same compound?
The concentration at 2 h was 11.5 ng/mL.

What about the concentration at 3 h [1, 4] of the same compound?
Its concentration at 3 h is 14.2 ng/mL.

And the concentration at 4 h [1, 4]?
The concentration at 4 h was 22.9 ng/mL.

And the concentration at 6 h [1, 4]?
The concentration at 6 h was 25 ng/mL.

And the concentration at 24 h [1, 4]?
The concentration at 24 h was 16.2 ng/mL.

And the concentration at 0.25 h [1, 5]?
Its concentration at 0.25 h is 76.6 ng/mL.

And the concentration at 0.5 h ([1]; Monkey #6 (pregnant animal with uterine recording), 0.5 Hours, 30 mg Potassium Salt in H15 Suppositories)?
Its concentration at 0.5 h is 68.4 ng/mL.

What about the concentration at 1 h [1, 5] of the same compound?
Its concentration at 1 h is 29.6 ng/mL.

What about the concentration at 1.5 h [1, 5] of the same compound?
The concentration at 1.5 h was 77.3 ng/mL.

What about the concentration at 2 h [1, 5] of the same compound?
Its concentration at 2 h is 28.4 ng/mL.

What about the concentration at 3 h [1, 5] of the same compound?
Its concentration at 3 h is 41.7 ng/mL.

What about the concentration at 4 h [1, 5] of the same compound?
The concentration at 4 h was 42.8 ng/mL.

What about the concentration at 6 h [1, 5] of the same compound?
The concentration at 6 h was 20.2 ng/mL.

What about the concentration at 24 h [1, 5] of the same compound?
The concentration at 24 h was 7.77 ng/mL.

And the concentration at 0.25 h [1, 6]?
Its concentration at 0.25 h is 20.4 ng/mL.

What about the concentration at 1 h [1, 6] of the same compound?
The concentration at 1 h was 1.5 ng/mL.

And the concentration at 1.5 h [1, 6]?
Its concentration at 1.5 h is 1.7 ng/mL.

And the concentration at 2 h [1, 6]?
Its concentration at 2 h is 3.57 ng/mL.

And the concentration at 3 h [1, 6]?
Its concentration at 3 h is 12.4 ng/mL.

And the concentration at 4 h [1, 6]?
The concentration at 4 h was 20.7 ng/mL.

And the concentration at 6 h [1, 6]?
Its concentration at 6 h is 53.8 ng/mL.

And the concentration at 24 h [1, 6]?
Its concentration at 24 h is 16 ng/mL.

And the concentration at 0.5 h ([1]; Monkey #10, .5 Hours, 30 mg Potassium Salt in H15 Plus 2% CSD Suppositories)?
The concentration at 0.5 h was 2.39 ng/mL.

And the concentration at 0.25 h [1, 7]?
Its concentration at 0.25 h is 19.8 ng/mL.

What about the concentration at 1 h [1, 7] of the same compound?
Its concentration at 1 h is 6.61 ng/mL.

And the concentration at 1.5 h [1, 7]?
The concentration at 1.5 h was 8.13 ng/mL.

What about the concentration at 2 h [1, 7] of the same compound?
Its concentration at 2 h is 9.8 ng/mL.

What about the concentration at 3 h [1, 7] of the same compound?
The concentration at 3 h was 9.48 ng/mL.

And the concentration at 4 h [1, 7]?
Its concentration at 4 h is 18.7 ng/mL.

What about the concentration at 6 h [1, 7] of the same compound?
Its concentration at 6 h is 28.7 ng/mL.

And the concentration at 24 h [1, 7]?
The concentration at 24 h was 23.4 ng/mL.

And the concentration at 0.5 h ([1]; Monkey #11, .5 Hours, 30 mg Potassium Salt in H15 Plus 2% CSD Suppositories)?
The concentration at 0.5 h was 14 ng/mL.

And the concentration at 0.25 h [1, 8]?
Its concentration at 0.25 h is 104 ng/mL.

What about the concentration at 1 h [1, 8] of the same compound?
The concentration at 1 h was 40.9 ng/mL.

And the concentration at 1.5 h [1, 8]?
The concentration at 1.5 h was 91.1 ng/mL.

And the concentration at 2 h [1, 8]?
The concentration at 2 h was 66.5 ng/mL.

And the concentration at 3 h [1, 8]?
The concentration at 3 h was 51.5 ng/mL.

What about the concentration at 4 h [1, 8] of the same compound?
The concentration at 4 h was 36.1 ng/mL.

What about the concentration at 6 h [1, 8] of the same compound?
Its concentration at 6 h is 22.5 ng/mL.

What about the concentration at 24 h [1, 8] of the same compound?
The concentration at 24 h was 6.04 ng/mL.

And the concentration at 0.5 h ([1]; Monkey #12 (pregnant animal with uterine recording), .5 Hours, 30 mg Potassium Salt in H15 Plus 2% CSD Suppositories)?
The concentration at 0.5 h was 55.7 ng/mL.

What about the concentration at 0.25 h [1, 9] of the same compound?
The concentration at 0.25 h was 7.45 ng/mL.

What about the concentration at 0.5 h ([1]; Monkey #16, 0.5 Hours, 30 mg Potassium Salt in H15 Plus 2% CSD + 10% Triacetin Suppositories) of the same compound?
The concentration at 0.5 h was 7 ng/mL.

What about the concentration at 1 h [1, 9] of the same compound?
The concentration at 1 h was 12.6 ng/mL.

And the concentration at 1.5 h [1, 9]?
Its concentration at 1.5 h is 19.9 ng/mL.

What about the concentration at 2 h [1, 9] of the same compound?
The concentration at 2 h was 40.2 ng/mL.

What about the concentration at 3 h [1, 9] of the same compound?
The concentration at 3 h was 45.5 ng/mL.

And the concentration at 4 h [1, 9]?
The concentration at 4 h was 31.4 ng/mL.

And the concentration at 6 h [1, 9]?
Its concentration at 6 h is 34.5 ng/mL.

And the concentration at 24 h [1, 9]?
Its concentration at 24 h is 14.2 ng/mL.

And the concentration at 0.25 h [1, 10]?
The concentration at 0.25 h was 7.98 ng/mL.

And the concentration at 0.5 h ([1]; Monkey #17, 0.5 Hours, 30 mg Potassium Salt in H15 Plus 2% CSD + 10% Triacetin Suppositories)?
The concentration at 0.5 h was 2.15 ng/mL.

What about the concentration at 1 h [1, 10] of the same compound?
The concentration at 1 h was 1.27 ng/mL.

And the concentration at 1.5 h [1, 10]?
Its concentration at 1.5 h is 1.86 ng/mL.

And the concentration at 2 h [1, 10]?
The concentration at 2 h was 1.75 ng/mL.

And the concentration at 3 h [1, 10]?
The concentration at 3 h was 20.1 ng/mL.

What about the concentration at 4 h [1, 10] of the same compound?
Its concentration at 4 h is 3.13 ng/mL.

What about the concentration at 6 h [1, 10] of the same compound?
Its concentration at 6 h is 6.97 ng/mL.

What about the concentration at 24 h [1, 10] of the same compound?
Its concentration at 24 h is 21.9 ng/mL.

What about the concentration at 0.25 h [1, 11] of the same compound?
Its concentration at 0.25 h is 56.8 ng/mL.

What about the concentration at 0.5 h ([1]; Monkey #18, 0.5 Hours, 30 mg Potassium Salt in H15 Plus 2% CSD + 10% Triacetin Suppositories) of the same compound?
Its concentration at 0.5 h is 207 ng/mL.

What about the concentration at 1 h [1, 11] of the same compound?
Its concentration at 1 h is 64.4 ng/mL.

What about the concentration at 1.5 h [1, 11] of the same compound?
The concentration at 1.5 h was 38.3 ng/mL.

What about the concentration at 2 h [1, 11] of the same compound?
Its concentration at 2 h is 87.2 ng/mL.

And the concentration at 3 h [1, 11]?
The concentration at 3 h was 47.8 ng/mL.

And the concentration at 4 h [1, 11]?
Its concentration at 4 h is 35.5 ng/mL.

What about the concentration at 6 h [1, 11] of the same compound?
Its concentration at 6 h is 33.9 ng/mL.

What about the concentration at 24 h [1, 11] of the same compound?
Its concentration at 24 h is 8.31 ng/mL.

And the Water content ([2]; after 5 days at ambient humidity)?
Its Water content is 0.16%.

What about the hygroscopicity ([2]; crystalline solid) of the same compound?
Its hygroscopicity is “non-hygroscopic”.
